# Experimental data as given in patent US8088815B2, “Spiroindolinone pyrrolidines” (Hoffman-La Roche Inc., priority 2009, dated 2012).
# Target: interaction between p53 and MDM2 proteins (Homo sapiens, UniProt Q00987)
# Test: HTRF assay of inhibition of the p53-MDM2 interaction (GST-MDM2 / biotinylated p53 peptide)
# Type: binding
# Conditions: recombinant GST-tagged MDM2 and biotinylated p53 peptide, bsa:0.02%
# Sequence of interaction between p53 and MDM2 proteins (Q00987 whole entry): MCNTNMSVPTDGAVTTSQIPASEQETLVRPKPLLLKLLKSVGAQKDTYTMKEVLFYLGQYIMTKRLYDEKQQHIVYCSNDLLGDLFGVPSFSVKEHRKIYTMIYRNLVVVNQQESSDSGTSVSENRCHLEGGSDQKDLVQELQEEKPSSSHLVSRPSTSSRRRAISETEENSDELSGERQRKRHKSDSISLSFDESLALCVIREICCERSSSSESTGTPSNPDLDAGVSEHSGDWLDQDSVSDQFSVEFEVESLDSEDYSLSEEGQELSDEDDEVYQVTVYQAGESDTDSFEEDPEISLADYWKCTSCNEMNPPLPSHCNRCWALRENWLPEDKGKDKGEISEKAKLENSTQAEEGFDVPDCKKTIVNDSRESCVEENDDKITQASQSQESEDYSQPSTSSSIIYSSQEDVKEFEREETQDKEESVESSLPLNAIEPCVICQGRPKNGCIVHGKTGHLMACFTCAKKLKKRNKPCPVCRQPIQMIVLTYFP
row,SMILES,IC50 [nM]
1,"CC(C)(CO)C[C@@H]1N[C@@H](C(=O)Nc2ccc(C#N)cc2)[C@H](c2cccc(Cl)c2F)[C@]12C(=O)Nc1cc(Cl)ccc12 (racemic) [Example 105, rac-(2′S,3′R,4′S,5′R)-6-chloro-4′-(3-chloro-2-fluoro-phenyl)-2′-(3-hydroxy-2,2-dimethyl-propyl)-2-oxo-1,2-dihydro-spiro[indole-3,3′-pyrrolidine]-5′-carboxylic acid (4-cyano-phenyl)-amide]",13
2,"CC(C)(C)C[C@@H]1N[C@@H](C(=O)Nc2ccc(Cl)cc2)[C@H](c2cccc(Cl)c2F)[C@]12C(=O)Nc1cc(Cl)ccc12 (racemic) [Example 21, rac-(2′S,3′R,4′S,5′R)-6-chloro-4′-(3-chloro-2-fluoro-phenyl)-2′-(2,2-dimethyl-propyl)-2-oxo-1,2-dihydro-spiro[indole-3,3′-pyrrolidine]-5′-carboxylic acid (4-chloro-phenyl)-amide]",19
3,"CNc1cc(C(=O)OC)ccc1NC(=O)[C@@H]1N[C@@H](CC(C)(C)C)[C@@]2(C(=O)Nc3cc(Cl)ccc32)[C@H]1c1cccc(Cl)c1F (racemic) [Example 166, rac-4-{[(2′S,3′R,4′S,5′R)-6-chloro-4′-(3-chloro-2-fluoro-phenyl)-2′-(2,2-dimethyl-propyl)-2-oxo-1,2-dihydro-spiro[indole-3,3′-pyrrolidine]-5′-carbonyl]amino}-3-methylamino-benzoic acid methyl ester]",25
4,"Cc1ccc(NC(=O)[C@@H]2N[C@@H](CC(C)(C)C)[C@@]3(C(=O)Nc4cc(Cl)ccc43)[C@H]2c2cccc(Cl)c2F)cc1 (racemic) [Example 36, rac-(2′S,3′R,4′S,5′R)-6-chloro-4′-(3-chloro-2-fluoro-phenyl)-2′-(2,2-dimethyl-propyl)-2-oxo-1,2-dihydro-spiro[indole-3,3′-pyrrolidine]-5′-carboxylic acid p-tolylamide]",18
5,"CC(C)(C)C[C@@H]1N[C@@H](C(=O)Nc2ccc(C(N)=O)cc2F)[C@H](c2cccc(Cl)c2F)[C@]12C(=O)Nc1cc(Cl)ccc12 [Example 54, chiral (2′S,3′R,4′S,5′R)-6-chloro-4′-(3-chloro-2-fluoro-phenyl)-2′-(2,2-dimethyl-propyl)-2-oxo-1,2-dihydro-spiro[indole-3,3′-pyrrolidine]-5′-carboxylic acid (4-carbamoyl-2-fluoro-phenyl)-amide]",7
6,"CCCCOc1cc(C(N)=O)ccc1NC(=O)[C@@H]1N[C@@H](CC(C)(C)C)[C@@]2(C(=O)Nc3cc(Cl)ccc32)[C@H]1c1cccc(Cl)c1F (racemic) [Example 152, rac-(2′S,3′R,4′S,5′R)-6-chloro-4′-(3-chloro-2-fluoro-phenyl)-2′-(2,2-dimethyl-propyl)-2-oxo-1,2-dihydro-spiro[indole-3,3′-pyrrolidine]-5′-carboxylic acid (2-butoxy-4-carbamoyl-phenyl)-amide]",11
7,"COc1cc(C(N)=O)ccc1NC(=O)[C@@H]1N[C@@H](CC(C)(C)C)[C@@]2(C(=O)Nc3cc(Br)ccc32)[C@H]1c1cccc(Cl)c1F (racemic) [Example 119, rac-(2′S,3′R,4′S,5′R)-6-bromo-4′-(3-chloro-2-fluoro-phenyl)-2′-(2,2-dimethyl-propyl)-2-oxo-1,2-dihydro-spiro[indole-3,3′-pyrrolidine]-5′-carboxylic acid (4-carbamoyl-2-methoxy-phenyl)-amide]",7
8,"CC(C)(C)C[C@@H]1N[C@@H](C(=O)Nc2ccc(C(N)=O)cc2)[C@H](c2ccc(F)c(Cl)c2)[C@]12C(=O)Nc1cc(Cl)ccc12 (racemic) [Example 84, rac-(2′S,3′R,4′R,5′R)-6-chloro-4′-(3-chloro-4-fluoro-phenyl)-2′-(2,2-dimethyl-propyl)-2-oxo-1,2-dihydro-spiro[indole-3,3′-pyrrolidine]-5′-carboxylic acid (4-carbamoyl-phenyl)-amide]",15
9,"COc1cc(C(N)=O)ccc1NC(=O)[C@@H]1N[C@@H](CC(C)(C)C)[C@@]2(C(=O)Nc3cc(Cl)cc(F)c32)[C@H]1c1cccc(Cl)c1F [Example 77, chiral (2′S,3′R,4′S,5′R)-6-chloro-4′-(3-chloro-2-fluoro-phenyl)-2′-(2,2-dimethyl-propyl)-4-fluoro-2-oxo-1,2-dihydro-spiro[indole-3,3′-pyrrolidine]-5′-carboxylic acid (4-carbamoyl-2-methoxy-phenyl)-amide]",5
10,"CC(=O)c1ccc(NC(=O)[C@@H]2N[C@@H](CC(C)(C)C)[C@@]3(C(=O)Nc4cc(Cl)ccc43)[C@H]2c2cccc(Cl)c2F)cc1 (racemic) [Example 11, rac-(2′S,3′R,4′S,5′R)-6-chloro-4′-(3-chloro-2-fluoro-phenyl)-2′-(2,2-dimethyl-propyl)-2-oxo-1,2-dihydro-spiro[indole-3,3′-pyrrolidine]-5′-carboxylic acid (4-acetyl-phenyl)-amide]",13
11,"COc1cc(C(N)=O)ccc1NC(=O)[C@@H]1N[C@@H](CC(C)(C)C)[C@@]2(C(=O)Nc3cc(Cl)ccc32)[C@H]1c1cccc(Cl)c1 (racemic) [Example 67, rac-(2′S,3′R,4′R,5′R)-6-chloro-4′-(3-chloro-phenyl)-2′-(2,2-dimethyl-propyl)-2-oxo-1,2-dihydro-spiro[indole-3,3′-pyrrolidine]-5′-carboxylic acid (4-carbamoyl-2-methoxy-phenyl)-amide]",10
12,"COc1cc(NC(=O)[C@@H]2N[C@@H](CC(C)(C)C)[C@@]3(C(=O)Nc4cc(Cl)ccc43)[C@H]2c2cccc(Cl)c2F)ccc1C(=O)O (racemic) [Example 16, rac-4-{[(2′S,3′R,4′S,5′R)-6-chloro-4′-(3-chloro-2-fluoro-phenyl)-2′-(2,2-dimethyl-propyl)-2-oxo-1,2-dihydro-spiro[indole-3,3′-pyrrolidine]-5′-carbonyl]-amino}-2-methoxy-benzoic acid]",10
13,"COc1cc(C#N)ccc1NC(=O)[C@@H]1N[C@@H](CC(C)(C)C)[C@@]2(C(=O)Nc3cc(Cl)ccc32)[C@H]1c1cc(F)cc(Cl)c1 (racemic) [Example 114, rac-(2′S,3′R,4′R,5′R)-6-chloro-4′-(3-chloro-5-fluoro-phenyl)-2′-(2,2-dimethyl-propyl)-2-oxo-1,2-dihydro-spiro[indole-3,3′-pyrrolidine]-5′-carboxylic acid (4-cyano-2-methoxy-phenyl)-amide]",12
14,"COc1cc(C(=O)O)ccc1NC(=O)[C@@H]1N[C@@H](CC(C)(C)C)[C@@]2(C(=O)Nc3cc(Cl)ccc32)[C@H]1c1cccc(Cl)c1F (racemic) [Example 110, rac-4-{[(2′S,3′R,4′S,5′R)-6-chloro-4′-(3-chloro-2-fluoro-phenyl)-2′-(2,2-dimethyl-propyl)-2-oxo-1,2-dihydro-spiro[indole-3,3′-pyrrolidine]-5′-carbonyl]-amino}-3-methoxy-benzoic acid]",11
15,"CCOc1cc(C(N)=O)ccc1NC(=O)[C@@H]1N[C@@H](CC(C)(C)C)[C@@]2(C(=O)Nc3cc(Cl)ccc32)[C@H]1c1cccc(Cl)c1F (racemic) [Example 131, rac-(2′S,3′R,4′S,5′R)-6-chloro-4′-(3-chloro-2-fluoro-phenyl)-2′-(2,2-dimethyl-propyl)-2-oxo-1,2-dihydro-spiro[indole-3,3′-pyrrolidine]-5′-carboxylic acid (4-carbamoyl-2-ethoxy-phenyl)-amide]",14

# Second part, the compound after the results:
row,IC50 [nM],SMILES
1,50,"CCOC(=O)c1csc(NC(=O)[C@@H]2N[C@@H](CC(C)(C)C)[C@@]3(C(=O)Nc4cc(Cl)ccc43)[C@H]2c2cccc(Cl)c2F)n1 (racemic) [Example 196, rac-2-{[(2′S,3′R,4′S,5′R)-6-chloro-4′-(3-chloro-2-fluoro-phenyl)-2′-(2,2-dimethyl-propyl)-2-oxo-1,2-dihydro-spiro[indole-3,3′-pyrrolidine]-5′-carbonyl]-amino}-thiazole-4-carboxylic acid ethyl ester]"
2,7,"CC(C)(C)C[C@@H]1N[C@@H](C(=O)Nc2ccc(C(N)=O)nc2)[C@H](c2cccc(Cl)c2F)[C@]12C(=O)Nc1cc(Cl)ccc12 (racemic) [Example 183, rac-(2′S,3′R,4′S,5′R)-6-chloro-4′-(3-chloro-2-fluoro-phenyl)-2′-(2,2-dimethyl-propyl)-2-oxo-1,2-dihydro-spiro[indole-3,3′-pyrrolidine]-5′-carboxylic acid (6-carbamoyl-pyridin-3-yl)-amide]"
3,16,"CC(C)(C)C[C@@H]1N[C@@H](C(=O)Nc2ccc(NCC(=O)O)cc2)[C@H](c2cccc(Cl)c2F)[C@]12C(=O)Nc1cc(Cl)ccc12 (racemic) [Example 218, rac-(4-{[(2′S,3′R,4′S,5′R)-6-chloro-4′-(3-chloro-2-fluoro-phenyl)-2′-(2,2-dimethyl-propyl)-2-oxo-1,2-dihydro-spiro[indole-3,3′-pyrrolidine]-5′-carbonyl]amino}-phenylamino)-acetic acid]"
4,6,"CC(C)(C)C[C@@H]1N[C@@H](C(=O)Nc2ccc(OCC(=O)O)cc2)[C@H](c2cccc(Cl)c2F)[C@]12C(=O)Nc1cc(Cl)ccc12 (racemic) [Example 206, rac-(4-{[(2′S,3′R,4′S,5′R)-6-chloro-4′-(3-chloro-2-fluoro-phenyl)-2′-(2,2-dimethyl-propyl)-2-oxo-1,2-dihydro-spiro[indole-3,3′-pyrrolidine]-5′-carbonyl]amino}-phenoxy)-acetic acid]"
5,15,"Cn1cccc1NC(=O)[C@@H]1N[C@@H](CC(C)(C)C)[C@@]2(C(=O)Nc3cc(Cl)ccc32)[C@H]1c1cccc(Cl)c1F (racemic) [Example 195, rac-(2′S,3′R,4′S,5′R)-6-chloro-4′-(3-chloro-2-fluoro-phenyl)-2′-(2,2-dimethyl-propyl)-2-oxo-1,2-dihydro-spiro[indole-3,3′-pyrrolidine]-5′-carboxylic acid (1-methyl-1H-pyrrol-2-yl)-amide]"
6,16,"CC(C)(C)C[C@@H]1N[C@@H](C(=O)Nc2cnc(C(N)=O)nc2)[C@H](c2cccc(Cl)c2F)[C@]12C(=O)Nc1cc(Cl)ccc12 (racemic) [Example 185, rac-(2′S,3′R,4′S,5′R)-6-chloro-4′-(3-chloro-2-fluoro-phenyl)-2′-(2,2-dimethyl-propyl)-2-oxo-1,2-dihydro-spiro[indole-3,3′-pyrrolidine]-5′-carboxylic acid (2-carbamoyl-pyrimidin-5-yl)-amide]"
